Values quoted from earlier work in patent publication US9072783B2, “Highly dispersible powders, compositions and methods for preparation” (Aridis Pharmaceuticals, priority 2009, dated 2015).

Settings: of the amino acid itself (Table 3)

Hydropathy Index | SMILES
−3.5 | N[C@@H](CC(=O)O)C(=O)O [Aspartic Acid, aspartic acid]
−1.3 | N[C@@H](Cc1ccc(O)cc1)C(=O)O [Tyrosine, tyrosine]
